The results in this text go back to patent US5631401A, “Inhibitors of protein farnesyltransferase and squalene synthase” (Abbott Laboratories, priority 1995, dated 1997).

One assay addresses T1, Rat brain protein farnesyltransferase (Rattus norvegicus, UniProt Q02293+Q04631).
T1 construct: The enzyme was purified according to Reiss, Y., et al., Cell, 62: 81-88 (1990), utilizing steps one through three; from tissue; host or cells: rat brain
Kind of assay: In vitro inhibition of protein farnesyltransferase (biotin-lamin substrate, scintillation proximity assay). Conditions: 1 μM (footnote *); read-out: % Inhibition at 1 μM (protein farnesyltransferase, values marked *). Type of assay: biochemical. As for the experimental part: In vitro inhibition of protein farnesyltransferase may be measured by the following procedure. (Procedures for determination of the inhibition of farnesylation of the oncogene protein Ras are described by Goldstein, et al., J. Biol. Chem., 266: 15575-15578 (1991) and by Singh in U.S. Pat. No. 5,245,061 both of which are incorporated herein by reference.)
Rat brain protein farnesyltransferase activity was measured using the biotin-lamin substrate (which is known to undergo farnesylation in a manner analogous to Ras protein) and radioactive farnesyl diphosphate provided by Amersham Life Science in their commercial scintillation proximity assay kit for the determination of farnesyltransferase. The enzyme was purified according to Reiss, Y., et al., Cell, 62: 81-88 (1990), utilizing steps one through three. The specific activity of the enzyme was approximately 10 nmol substrate farnesylated/mg enzyme/hour. […]
With `O=C(O)CN(Cc1ccc(Oc2ccccc2)cc1)C(=O)C1C(C(=O)O)C(C(=O)N(CC(=O)O)Cc2ccc(Oc3ccccc3)cc2)C1C(=O)O` (stereo not drawn) [Example 43, (1α,2β,3β,4α)-1,3-Di[N-carboxymethyl-N-(4-phenoxybenzyl)aminocarbonyl]cyclobutane-2,4-dicarboxylic acid], the inhibition at 1 µM is 54%.
For the compound `CCCN(Cc1ccc(Oc2nccs2)cc1)C(=O)C1C(C(=O)O)C(C(=O)N(CCC)Cc2ccc(Oc3nccs3)cc2)C1C(=O)O` (stereo not drawn) [Example 55], the inhibition at 1 µM is 22%.
As to `CCCN(CC=C=Cc1ccccc1)C(=O)C1C(C(=O)O)C(C(=O)N(CC=C=Cc2ccccc2)CCC)C1C(=O)O` (stereo not drawn) [Example 60, (1α,2β,3β,4α)-1,3-Di[N-propyl-N-(4-phenyl-2,3-butadien-1-yl)aminocarbonyl]cyclobutane-2,4-dicarboxylic acid], the inhibition at 1 µM came to 23%.
Still for that read-out and setting: the same measure for `CCCN(Cc1ccc(COc2ccccc2)cc1)C(=O)C1C(C(=O)O)C(C(=O)N(CCC)Cc2ccc(COc3ccccc3)cc2)C1C(=O)O` (stereo not drawn) [Example 65, (1α,2β,3β,4α)-1,3-Di[N-propyl-N-(4-phenoxymethylbenzyl)aminocarbonyl]-2,4-cyclobutanedicarboxylic acid]: 52%; for `O=C(O)[C@H]1[C@H](C(=O)N(CCO)Cc2ccc(Oc3ccccc3)cc2)[C@H](C(=O)O)[C@H]1C(=O)N(CCO)Cc1ccc(Oc2ccccc2)cc1` [Example 74, (1α,2β,3β,4α)-1,3-Di[N-(2-hydroxyethyl)-N-(4-phenoxybenzyl)aminocarbonyl]cyclobutane-2,4-dicarboxylic acid]: 22%.
Same read-out and setting: with `O=C(O)[C@H]1[C@H](C(=O)N(Cc2ccc(Oc3ccccc3)cc2)Cc2ccc3ccccc3c2)[C@H](C(=O)O)[C@H]1C(=O)N(Cc1ccc(Oc2ccccc2)cc1)Cc1ccc2ccccc2c1` [Example 81, (1α,2β,3β,4α)-1,3-Di [N-(4-phenoxybenzyl)-N-(2-methylnaphthyl)aminocarbonyl]cyclobutane-2,4-dicarboxylic acid] the figure was 62%.

Still in this assay, the particulars now being: 10 μM; compared to uninhibited control.
`CCCN(Cc1ccc(Oc2ccccc2)cc1)C(=O)[C@H]1[C@H](C(=O)O)[C@H](C(=O)N(C)CC/C=C(\C)CCC=C(C)C)[C@H]1C(=O)O` (relative stereo) [Example 41, (1α,2β,3β,4α)-1-[N-Propyl-N-(4-phenoxybenzyl)aminocarbonyl]-3-[N-methyl-N-(homogeranyl)aminocarbonyl]cyclobutane-2,4-dicarboxylic acid] registered an inhibition at 10 µM of 63%.
On the same count and under the same terms, the same measure for `O=C(O)[C@H]1[C@H](C(=O)N2CCCC(c3ccccc3)C2)[C@H](C(=O)O)[C@H]1C(=O)N1CCCC(c2ccccc2)C1` (relative stereo) [Example 83, (1α,2β,3β,4α)-1,3-Di [(3-phenylpiperidin-1-yl)carbonyl]cyclobutane-2,4-dicarboxylic acid]: 37%.
`O=C(O)[C@H]1[C@H](C(=O)OCc2ccc(Oc3ccccc3)cc2)[C@H](C(=O)O)[C@H]1C(=O)OCc1ccc(Oc2ccccc2)cc1` [Example 36, (1α,2β,3β,4α)-1,3-Di[4-phenoxybenzyloxycarbonyl]cyclobutane-2,4-dicarboxylic acid] registered an inhibition at 10 µM of 24%.
The same measure, in the same setting: the same measure for `CCCN(Cc1ccc(OC2CCCCC2)cc1)C(=O)[C@H]1[C@H](C(=O)O)[C@H](C(=O)N(CCC)Cc2ccc(OC3CCCCC3)cc2)[C@H]1C(=O)O` [Example 37, (1α,2β,3β,4α)-1,3-Di[N-propyl-N-(4-cyclohexyloxybenzyl)aminocarbonyl]cyclobutane-2,4-dicarboxylic acid]: 22%; for `CCCN(CCCCCc1ccccc1)C(=O)[C@H]1[C@H](C(=O)O)[C@H](C(=O)N(CCC)CCCCCc2ccccc2)[C@H]1C(=O)O` [Example 38, (1α,2β,3β,4α)-1,3-Di[N-propyl-N-(5-phenylpentyl)aminocarbonyl]cyclobutane-2,4-dicarboxylic acid]: 85%.
Still for that read-out and setting: the same measure for `CCCN(CCCCOc1ccccc1)C(=O)[C@H]1[C@H](C(=O)O)[C@H](C(=O)N(CCC)CCCCOc2ccccc2)[C@H]1C(=O)O` [Example 39, (1α,2β,3β,4α)-1,3-Di[N-propyl-N-(4-phenoxybutyl)aminocarbonyl]cyclobutane-2,4-dicarboxylic acid]: 66%; for `CCCN(Cc1ccc(Oc2ccccc2)cc1)C(=O)C1C(C(=O)O)C(C(=O)N(CCC)Cc2ccc(Oc3ccccc3)cc2)C1C(=O)O` (stereo not drawn) [Example 47, (1α,2β,3β,4α)-1,3-Di[N-propyl-N-(4-phenoxybenzyl)aminocarbonyl]cyclobutane-2,4-dicarboxylic acid]: 50%; for `CCCN(Cc1ccc(Oc2ccc3c(c2)OCO3)cc1)C(=O)C1C(C(=O)O)C(C(=O)N(CCC)Cc2ccc(Oc3ccc4c(c3)OCO4)cc2)C1C(=O)O` (stereo not drawn) [Example 48, (1α,2β,3β,4α)-1,3-Di[N-propyl-N-(4-(3,4-methylenedioxyphenoxy)benzyl)aminocarbonyl]cyclobutane-2,4-dicarboxylic acid]: 61%.
Compound `COc1ccc2c(c1)CCN(C(=O)C1C(C(=O)O)C(C(=O)N3CCc4cc(OC)ccc4C3)C1C(=O)O)C2` (stereo not drawn) [Example 49, (1α,2β,3β,4α)-1,3-Di[6-methoxy-1,2,3,4-tetrahydroisoquinolin-2-ylcarbonyl]cyclobutane-2,4-dicarboxylic acid] showed an inhibition at 10 µM of 23%.
`CCCN(Cc1ccc(Oc2ccccc2C)cc1)C(=O)C1C(C(=O)O)C(C(=O)N(CCC)Cc2ccc(Oc3ccccc3C)cc2)C1C(=O)O` (stereo not drawn) [Example 50, (1α,2β,3β,4α)-1,3-Di[N-propyl-N-(4-(2-methylphenoxy)benzyl)aminocarbonyl]cyclobutane-2,4-dicarboxylic acid] came in with an inhibition at 10 µM of 35%.
Same read-out and setting: the same measure for `CCCN(Cc1ccc(Oc2ccccc2)o1)C(=O)C1C(C(=O)O)C(C(=O)N(CCC)Cc2ccc(Oc3ccccc3)o2)C1C(=O)O` (stereo not drawn) [Example 52, (1α,2β,3β,4α)-1,3-Di[N-propyl-N-(5-phenoxyfurfuryl)aminocarbonyl]cyclobutane-2,4-dicarboxylic acid]: 51%; for `CCCN(Cc1ccc(Cn2cccc2)cc1)C(=O)C1C(C(=O)O)C(C(=O)N(CCC)Cc2ccc(Cn3cccc3)cc2)C1C(=O)O` (stereo not drawn) [Example 56, (1α,2β,3β,4α)-1,3-Di[N-propyl-N-(4-(pyrrol-1-ylmethyl)benzyl)aminocarbonyl]cyclobutane-2,4-dicarboxylic acid]: 78%.
The same measure, in the same setting: the same measure for `CCCN(CC#CCc1ccccc1)C(=O)[C@H]1[C@H](C(=O)O)[C@H](C(=O)N(CC#CCc2ccccc2)CCC)[C@H]1C(=O)O` [Example 61, (1α,2β,3β,4α)-1,3-Di{N-propyl-N-(4-phenylbut-2-yn-1-yl)aminocarbonyl}cyclobutane-2,4-dicarboxylic acid]: 73%; for `CCCN(Cc1ccc(Nc2ccccc2)cc1)C(=O)C1C(C(=O)O)C(C(=O)N(CCC)Cc2ccc(Nc3ccccc3)cc2)C1C(=O)O` (stereo not drawn) [Example 62, (1α,2β,3β,4α)-1,3-Di[N-propyl-N-(4-phenylaminobenzyl)aminocarbonyl]cyclobutane-2,4-dicarboxylic acid]: 69%.
Take `CCCN(C(=O)C1C(C(=O)O)C(C(=O)N(CCC)c2ccc(Oc3ccccc3)cc2)C1C(=O)O)c1ccc(Oc2ccccc2)cc1` (stereo not drawn) [Example 66, (1α,2β,3β,4α)-1,3-Di[N-propyl-N-(4-phenoxyphenyl)aminocarbonyl]cyclobutane-2,4-dicarboxylic acid]: testing at 10 µM gave an inhibition of 88%.
